{"source": "patent US10945932B2", "about": "“Prebiotic oral care compositions containing carboxylic acids” (COLGATE-PALMOLIVE COMPANY, priority 2013, dated 2021)", "key": {"[1]": {"tested_on": "Actinomyces naeslundii", "test": "Metabolic activity, Biolog phenotype microarray", "type": "cell-based", "details": "A naeslundii"}, "[2]": {"tested_on": "Actinomyces viscosus", "test": "Metabolic activity, Biolog phenotype microarray", "type": "cell-based", "details": "A viscosus"}, "[3]": {"tested_on": "Aggregatibacter actinomycetemcomitans", "test": "Metabolic activity, Biolog phenotype microarray", "type": "cell-based", "details": "A actinomycetemcomitans"}, "[4]": {"tested_on": "Capnocytophaga sputigena", "test": "Metabolic activity, Biolog phenotype microarray", "type": "cell-based", "details": "C sputigena"}, "[5]": {"tested_on": "Fusobacterium nucleatum", "test": "Metabolic activity, Biolog phenotype microarray", "type": "cell-based", "details": "F nucleatum"}, "[6]": {"tested_on": "Porphyromonas gingivalis", "test": "Metabolic activity, Biolog phenotype microarray", "type": "cell-based", "details": "P gingivalis"}, "[7]": {"tested_on": "Prevotella intermedia", "test": "Metabolic activity, Biolog phenotype microarray", "type": "cell-based", "details": "P intermedia"}, "[8]": {"tested_on": "Streptococcus gordonii", "test": "Metabolic activity, Biolog phenotype microarray", "type": "cell-based", "details": "S gordonii"}, "[9]": {"tested_on": "Streptococcus mitis", "test": "Metabolic activity, Biolog phenotype microarray", "type": "cell-based", "details": "S mitis"}, "[10]": {"tested_on": "Streptococcus mutans", "test": "Metabolic activity, Biolog phenotype microarray", "type": "cell-based", "details": "S mutans"}, "[11]": {"tested_on": "Streptococcus salivarius", "test": "Metabolic activity, Biolog phenotype microarray", "type": "cell-based", "details": "S salivarius"}, "[12]": {"tested_on": "Streptococcus sanguinis", "test": "Metabolic activity, Biolog phenotype microarray", "type": "cell-based", "details": "S sanguinis"}, "[13]": {"tested_on": "Streptococcus sobrinus", "test": "Metabolic activity, Biolog phenotype microarray", "type": "cell-based", "details": "S sobrinus"}, "[14]": {"tested_on": "Tannerella forsythia", "test": "Metabolic activity, Biolog phenotype microarray", "type": "cell-based", "details": "T forsythia"}, "[15]": {"tested_on": "Veillonella parvula", "test": "Metabolic activity, Biolog phenotype microarray", "type": "cell-based", "details": "V parvula"}, "[16]": {"tested_on": "Aggregatibacter actinomycetemcomitans", "details": "A actinomycetemcomitans, BHI", "protocol": "(§1) Late exponential growth phase liquid cultures were prepared by transferring the respective bacterium from blood agar plates to BHI and overnight incubation at 37° C. in an anaerobic atmosphere for A. viscosus, V. parvula, F. nucleatum, P. gingivalis, P. intermedia, T forsythia, A. naeslundii, and C. sputigena, and in a 5% CO2 environment for S. salivarius, S. sanguinis, S. mitis, A. actinomycetemcomitans, S. mutans, S. sobrinus and S. gordonii. Overnight cultures were transferred to BHI and adjusted to a concentration of 1×10^7 CFU/ml (colony forming units per ml) by measuring the optical density at 600 nm (OD600) (BioRad SmartSpec 3000). For each strain, 200 μl of the bacterial suspension was added to a 96-well plate containing 20 μl of the respective carboxylic acids. Final concentrations of the carboxylic acids were set to 5, 10, 20 and 25 μmol/ml. […] Plates were incubated as previously described.\n(§2) For each combination of bacterium/carboxylic acid, and for each of their respective controls (i.e. the particular bacterium in the nutritionally rich medium with no carboxylic acid), the optical density was measured at 630 nm (OD630) at 0 h, 24 h and 48 h (Thermo Scientific Multiskan Ascent). Additionally, the OD630 for combinations of bacterium/carboxylic acid grown in a 5% CO2 environment were also measured every hour between 0 h and 9 h.\n(§3) The experiment was carried out on three different days (thus providing 3 biological replicas) and on each day the experiment was carried out in quadruple (thus providing 4 technical replicas) for each combination of bacterium with carboxylic acid and for each control. For each day and for each combination, the average (mean) of the values obtained (as detailed above) for the four technical replicas was calculated to provide a single value for each combination on each day."}, "[17]": {"tested_on": "Porphyromonas gingivalis", "details": "P gingivalis, BHI", "protocol": "as §1, §2, §3"}, "[18]": {"tested_on": "Streptococcus sobrinus", "details": "S sobrinus, BHI", "protocol": "as §1, §2, §3"}, "[19]": {"tested_on": "Tannerella forsythia", "details": "T forsythia, BHI", "protocol": "as §1, §2, §3"}, "[20]": {"tested_on": "Actinomyces naeslundii", "details": "A naeslundii, BHI", "protocol": "as §1, §2, §3"}, "[21]": {"tested_on": "Actinomyces viscosus", "details": "A viscosus, BHI", "protocol": "as §1, §2, §3"}, "[22]": {"tested_on": "Veillonella parvula", "details": "V parvula, BHI", "protocol": "as §1, §2, §3"}, "[23]": {"tested_on": "Streptococcus mitis", "details": "S mitis, BHI", "protocol": "as §1, §2, §3"}, "[24]": {"tested_on": "beneficial oral bacteria and pathogenic oral bacteria", "details": "over 48 hours, threshold value of 1.25", "description": "The beneficial oral bacteria tested were Streptococcus mitis, Streptococcus salivarius, Streptococcus sanguinis, Actinomyces viscosus, Streptococcus gordonii, Capnocytophaga sputigena, Actinomyces naeslundii and Veillonella parvula. The pathogenic oral bacteria tested were Streptococcus mutans, Prevotella intermedia, Porphyromonas gingivalis, Fusobacterium nucleatum, Tannerella forsythia, Aggregatibacter actinomycetemcomitans and Streptococcus sobrinus.\nas §1, §2, §3\nThis value was selected in order to exclude low-stimulating metabolites and avoid false positive results."}}, "note": "Read-outs that look alike come from different tables or passages of the source.", "data": [{"smiles": "O=C(O)CCC(=O)O", "note": "[Succinic acid, succinic acid]", "values": [{"measurement": "metabolic activity, OD at 492 nm divided by OD of control (control = 1)", "setting": "[1]; 24 hrs", "value": 0.9767}, {"measurement": "metabolic activity, OD at 492 nm divided by OD of control (control = 1)", "setting": "[1]; 48 hrs", "value": 0.9858}, {"measurement": "metabolic activity, OD at 492 nm divided by OD of control (control = 1)", "setting": "[2]; 24 hrs", "value": 0.9752}, {"measurement": "metabolic activity, OD at 492 nm divided by OD of control (control = 1)", "setting": "[2]; 48 hrs", "value": 1.0089}, {"measurement": "metabolic activity, OD at 492 nm divided by OD of control (control = 1)", "setting": "[3]; 24 hrs", "value": 1.1066}, {"measurement": "metabolic activity, OD at 492 nm divided by OD of control (control = 1)", "setting": "[3]; 48 hrs", "value": 1.2815}, {"measurement": "metabolic activity, OD at 492 nm divided by OD of control (control = 1)", "setting": "[4]; 24 hrs", "value": 1.0400}, {"measurement": "metabolic activity, OD at 492 nm divided by OD of control (control = 1)", "setting": "[4]; 48 hrs", "value": 1.0105}, {"measurement": "metabolic activity, OD at 492 nm divided by OD of control (control = 1)", "setting": "[5]; 24 hrs", "value": 0.8508}, {"measurement": "metabolic activity, OD at 492 nm divided by OD of control (control = 1)", "setting": "[5]; 48 hrs", "value": 0.8574}, {"measurement": "metabolic activity, OD at 492 nm divided by OD of control (control = 1)", "setting": "[6]; 24 hrs", "value": 0.8726}, {"measurement": "metabolic activity, OD at 492 nm divided by OD of control (control = 1)", "setting": "[6]; 48 hrs", "value": 0.9109}, {"measurement": "metabolic activity, OD at 492 nm divided by OD of control (control = 1)", "setting": "[7]; 24 hrs", "value": 1.0677}, {"measurement": "metabolic activity, OD at 492 nm divided by OD of control (control = 1)", "setting": "[7]; 48 hrs", "value": 1.1361}, {"measurement": "metabolic activity, OD at 492 nm divided by OD of control (control = 1)", "setting": "[8]; 24 hrs", "value": 0.7960}, {"measurement": "metabolic activity, OD at 492 nm divided by OD of control (control = 1)", "setting": "[8]; 48 hrs", "value": 0.8167}, {"measurement": "metabolic activity, OD at 492 nm divided by OD of control (control = 1)", "setting": "[9]; 24 hrs", "value": 0.9268}, {"measurement": "metabolic activity, OD at 492 nm divided by OD of control (control = 1)", "setting": "[9]; 48 hrs", "value": 0.8537}, {"measurement": "metabolic activity, OD at 492 nm divided by OD of control (control = 1)", "setting": "[10]; 24 hrs", "value": 0.8991}, {"measurement": "metabolic activity, OD at 492 nm divided by OD of control (control = 1)", "setting": "[10]; 48 hrs", "value": 0.8576}, {"measurement": "metabolic activity, OD at 492 nm divided by OD of control (control = 1)", "setting": "[11]; 24 hrs", "value": 0.9019}, {"measurement": "metabolic activity, OD at 492 nm divided by OD of control (control = 1)", "setting": "[11]; 48 hrs", "value": 0.8347}, {"measurement": "metabolic activity, OD at 492 nm divided by OD of control (control = 1)", "setting": "[12]; 24 hrs", "value": 0.9046}, {"measurement": "metabolic activity, OD at 492 nm divided by OD of control (control = 1)", "setting": "[12]; 48 hrs", "value": 0.8763}, {"measurement": "metabolic activity, OD at 492 nm divided by OD of control (control = 1)", "setting": "[13]; 24 hrs", "value": 0.8265}, {"measurement": "metabolic activity, OD at 492 nm divided by OD of control (control = 1)", "setting": "[13]; 48 hrs", "value": 0.8068}, {"measurement": "metabolic activity, OD at 492 nm divided by OD of control (control = 1)", "setting": "[14]; 24 hrs", "value": 0.9307}, {"measurement": "metabolic activity, OD at 492 nm divided by OD of control (control = 1)", "setting": "[14]; 48 hrs", "value": 0.9641}, {"measurement": "metabolic activity, OD at 492 nm divided by OD of control (control = 1)", "setting": "[15]; 24 hrs", "value": 2.8247}, {"measurement": "metabolic activity, OD at 492 nm divided by OD of control (control = 1)", "setting": "[15]; 48 hrs", "value": 2.2852}, {"measurement": "extent of growth, maximal OD630 over 48 hr divided by maximal OD of control (control = 1)", "setting": "[16]; 5 μmol/ml", "value": 0.6497}, {"measurement": "extent of growth, maximal OD630 over 48 hr divided by maximal OD of control (control = 1)", "setting": "[16]; 10 μmol/ml", "value": 0.4197}, {"measurement": "extent of growth, maximal OD630 over 48 hr divided by maximal OD of control (control = 1)", "setting": "[16]; 20 μmol/ml", "value": 0.1940}, {"measurement": "extent of growth, maximal OD630 over 48 hr divided by maximal OD of control (control = 1)", "setting": "[16]; 25 μmol/ml", "value": 0.1968}, {"measurement": "extent of growth, maximal OD630 over 48 hr divided by maximal OD of control (control = 1)", "setting": "[17]; 5 μmol/ml", "value": 1.0091}, {"measurement": "extent of growth, maximal OD630 over 48 hr divided by maximal OD of control (control = 1)", "setting": "[17]; 10 μmol/ml", "value": 0.8129}, {"measurement": "extent of growth, maximal OD630 over 48 hr divided by maximal OD of control (control = 1)", "setting": "[17]; 20 μmol/ml", "value": 0.4103}, {"measurement": "extent of growth, maximal OD630 over 48 hr divided by maximal OD of control (control = 1)", "setting": "[17]; 25 μmol/ml", "value": 0.4061}, {"measurement": "extent of growth, maximal OD630 over 48 hr divided by maximal OD of control (control = 1)", "setting": "[18]; 5 μmol/ml", "value": 0.9460}, {"measurement": "extent of growth, maximal OD630 over 48 hr divided by maximal OD of control (control = 1)", "setting": "[18]; 10 μmol/ml", "value": 0.8269}, {"measurement": "extent of growth, maximal OD630 over 48 hr divided by maximal OD of control (control = 1)", "setting": "[18]; 20 μmol/ml", "value": 0.4744}, {"measurement": "extent of growth, maximal OD630 over 48 hr divided by maximal OD of control (control = 1)", "setting": "[18]; 25 μmol/ml", "value": 0.2284}, {"measurement": "extent of growth, maximal OD630 over 48 hr divided by maximal OD of control (control = 1)", "setting": "[19]; 5 μmol/ml", "value": 0.9040}, {"measurement": "extent of growth, maximal OD630 over 48 hr divided by maximal OD of control (control = 1)", "setting": "[19]; 10 μmol/ml", "value": 0.7937}, {"measurement": "extent of growth, maximal OD630 over 48 hr divided by maximal OD of control (control = 1)", "setting": "[19]; 20 μmol/ml", "value": 0.7975}, {"measurement": "extent of growth, maximal OD630 over 48 hr divided by maximal OD of control (control = 1)", "setting": "[19]; 25 μmol/ml", "value": 0.8103}, {"measurement": "extent of growth, maximal OD630 over 48 hr divided by maximal OD of control (control = 1)", "setting": "[20]; 5 μmol/ml", "value": 0.9975}, {"measurement": "extent of growth, maximal OD630 over 48 hr divided by maximal OD of control (control = 1)", "setting": "[20]; 10 μmol/ml", "value": 0.5885}, {"measurement": "extent of growth, maximal OD630 over 48 hr divided by maximal OD of control (control = 1)", "setting": "[20]; 20 μmol/ml", "value": 0.2228}, {"measurement": "extent of growth, maximal OD630 over 48 hr divided by maximal OD of control (control = 1)", "setting": "[20]; 25 μmol/ml", "value": 0.1840}, {"measurement": "extent of growth, maximal OD630 over 48 hr divided by maximal OD of control (control = 1)", "setting": "[21]; 5 μmol/ml", "value": 0.5671}, {"measurement": "extent of growth, maximal OD630 over 48 hr divided by maximal OD of control (control = 1)", "setting": "[21]; 10 μmol/ml", "value": 0.3693}, {"measurement": "extent of growth, maximal OD630 over 48 hr divided by maximal OD of control (control = 1)", "setting": "[21]; 20 μmol/ml", "value": 0.1827}, {"measurement": "extent of growth, maximal OD630 over 48 hr divided by maximal OD of control (control = 1)", "setting": "[21]; 25 μmol/ml", "value": 0.1586}, {"measurement": "extent of growth, maximal OD630 over 48 hr divided by maximal OD of control (control = 1)", "setting": "[22]; 5 μmol/ml", "value": 1.1624}, {"measurement": "extent of growth, maximal OD630 over 48 hr divided by maximal OD of control (control = 1)", "setting": "[22]; 10 μmol/ml", "value": 1.1922}, {"measurement": "extent of growth, maximal OD630 over 48 hr divided by maximal OD of control (control = 1)", "setting": "[22]; 20 μmol/ml", "value": 1.4603}, {"measurement": "extent of growth, maximal OD630 over 48 hr divided by maximal OD of control (control = 1)", "setting": "[22]; 25 μmol/ml", "value": 1.3566}, {"measurement": "extent of growth, maximal OD630 over 48 hr divided by maximal OD of control (control = 1)", "setting": "[23]; 5 μmol/ml", "value": 0.7273}, {"measurement": "extent of growth, maximal OD630 over 48 hr divided by maximal OD of control (control = 1)", "setting": "[23]; 10 μmol/ml", "value": 0.7615}, {"measurement": "extent of growth, maximal OD630 over 48 hr divided by maximal OD of control (control = 1)", "setting": "[23]; 20 μmol/ml", "value": 0.4339}, {"measurement": "extent of growth, maximal OD630 over 48 hr divided by maximal OD of control (control = 1)", "setting": "[23]; 25 μmol/ml", "value": 0.1591}, {"measurement": "prebiotic effect (extent of growth)", "setting": "[24]; 20 μmol/ml", "value": "exhibited prebiotic effects"}, {"measurement": "prebiotic effect (extent of growth)", "setting": "[24]; 25 μmol/ml", "value": "exhibited prebiotic effects"}]}]}
